Laboratory results reported in patent US20240150293A1, “SPIROCYCLOHEXANE DERIVATIVES, PHARMACEUTICAL COMPOSITIONS CONTAINING THEM AND THEIR USES AS ANTI-APOPTOTIC INHIBITORS” (LES LABORATOIRES SERVIER, priority 2021, published 2024).

Experiments:
[1] = target: Cy5-labelled Mcl1 (amino acids 171-321) C286S protein (UniProtKB Q07820) (Homo sapiens (Human), UniProt Q07820, C286S); experiment: Inhibition of Mcl-1 by the fluorescence quenching assay (Example A, Method B); type: binding
How it was run: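 Cy5-labelled Mcl1 171-321 C286S (1 nM) quenched by TQ5WS-labelled PUMA peptide (10, 20 or 400 nM); displacement raises fluorescence (Ex 620/Em 680 nm). Buffer 10 mM HEPES, 150 mM NaCl, 0.05% Tween 20, pH 7.4, 5% DMSO; 2 h at room temperature, 11-point curves, IC50 converted to Ki (cKi/eKi).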

NCI-H929 cell lines = experiment: In vitro cytotoxicity, CellTiter-Glo (CTG) assay (Example B, Method B); type: cell-based; settings: Homo sapiens, NCI-H929, 48 h, NCI-H929 cells, 48 h incubation, read-out: C50
How it was run: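 NCI-H929 cells exposed to an 11-point compound series from 10 mM DMSO stocks (top final 30 μM) for 48 h at 37° C., 5% CO2. Viability measured as ATP by CellTiter-Glo luminescence; C50 is the concentration giving 50% cellular viability.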

[2] = system: AMO-1 multiple myeloma xenograft; experiment: Quantification of the cleaved form of PARP in vivo, per os (Example C); design: species or system SCID mice; settings: single dose per os, tumors recovered 16 hours after dosing
Method: (§1) The ability of the compounds of the invention to induce apoptosis was evaluated in vivo using the AMO-1 multiple myeloma xenograft.
(§2) 1×10^7 cells were subcutaneously grafted into immunosuppressed SCID mice. 12-14 days later, when tumors had reached the appropriate volume, mice (3 per group) were treated once with the various compounds (per os, HEC 1%/Tween 80 99:1). Tumor samples were recovered 16 hours after dosing and lysed. Cleared lysates were used for cleaved PARP quantification (as a marker of apoptosis induction) using the Meso Scale Discovery (MSD) Elisa platform test. Results are expressed as the ratio between cleaved PARP in treated mice over control mice.

[3] = system: AMO-1 multiple myeloma xenografts; experiment: Anti-tumor activity in vivo (Example D); design: species or system SCID mice
Method: The anti-tumor activity of the compounds of the invention was evaluated using AMO-1 multiple myeloma xenografts.
1×10^7 cells were subcutaneously grafted into immunosuppressed SCID mice. 7-10 days later, when the tumor mass had reached an average volume of about 150 mm^3, mice were treated with the various compounds once a week for 2 weeks (per os, HEC 1%/Tween 80 99:1). Tumor size was measured three times per week using electronic calipers.
At the end of the treatment cycle (d9), tumor growth inhibition (TGI) was calculated using the formula: […]
wherein DTV (Delta Tumor Volume) at Dx was calculated as follows: […]
(Tumor Volume at Dx)−(Tumor Volume at Randomization).

[4] = system: AMO-1 multiple myeloma xenograft; experiment: Quantification of the cleaved form of PARP in vivo, IV (Example E); design: species or system SCID mice; settings: single dose
Method: as §1
as §2, with “(IV).” for “(per os, HEC 1%/Tween 80 99:1).”, “recovered 6 or” for “recovered”

Cy5-labelled Mcl1 (amino acids 171-321) C286S protein, sequence (Q07820 171-321 C286S): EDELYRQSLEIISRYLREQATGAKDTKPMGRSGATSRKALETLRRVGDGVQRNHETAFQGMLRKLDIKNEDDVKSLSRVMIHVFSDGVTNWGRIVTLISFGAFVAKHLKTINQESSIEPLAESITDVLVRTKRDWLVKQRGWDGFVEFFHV

SMILES: C[C@@H](COc1ccnc2c1[C@H](C)CCC2)C[C@H]1Cc2cc3c(cc2[C@]12CC[C@@](Nc1cccc(Cl)c1)(C(=O)O)CC2)OCO3 [Example 840, (1r,4S,6′S)-4-(3-chloroanilino)-6′-[(2R)-2-methyl-3-{[(5R)-5-methyl-5,6,7,8-tetrahydroquinolin-4-yl]oxy}propyl]-6′,7′-dihydro-2′H-spiro[cyclohexane-1,5′-indeno[5,6-d][1,3]dioxole]-4-carboxylic acid]
- Ki [1]: 0.0554 nM
- IC50 (NCI-H929 cell lines): 30.5 nM
- Cleaved PARP (fold to control) ([2]; 30 mpk): 19.2 fold to control
- Cleaved PARP (fold to control) ([2]; 60 mpk): 29.4 fold to control
- % TGI (d9) ([3]; 30 mpk per os once a week for 2 weeks): 83.8%
- % TGI (d9) ([3]; 60 mpk per os once a week for 2 weeks): 119.8%
- Cleaved PARP (fold to control) ([4]; 15 mpk IV, time-point 6 h): 127.8 fold to control
- Cleaved PARP (fold to control) ([4]; 30 mpk IV, time-point 6 h): 166.3 fold to control
- Cleaved PARP (fold to control) ([4]; 30 mpk IV, time-point 16 h): 138.2 fold to control
